Assay results as given in ChEMBL document CHEMBL4196084 (Eur J Med Chem, 2018).
Calls of active or inactive are those of the source. No cut-off for these calls is given here.

Tests used:
[1] = molecular target: T1, Muscarinic acetylcholine receptor M1 (Homo sapiens, UniProt P11229); format: functional, cell-based, CHO
T1 sequence (P11229 whole entry): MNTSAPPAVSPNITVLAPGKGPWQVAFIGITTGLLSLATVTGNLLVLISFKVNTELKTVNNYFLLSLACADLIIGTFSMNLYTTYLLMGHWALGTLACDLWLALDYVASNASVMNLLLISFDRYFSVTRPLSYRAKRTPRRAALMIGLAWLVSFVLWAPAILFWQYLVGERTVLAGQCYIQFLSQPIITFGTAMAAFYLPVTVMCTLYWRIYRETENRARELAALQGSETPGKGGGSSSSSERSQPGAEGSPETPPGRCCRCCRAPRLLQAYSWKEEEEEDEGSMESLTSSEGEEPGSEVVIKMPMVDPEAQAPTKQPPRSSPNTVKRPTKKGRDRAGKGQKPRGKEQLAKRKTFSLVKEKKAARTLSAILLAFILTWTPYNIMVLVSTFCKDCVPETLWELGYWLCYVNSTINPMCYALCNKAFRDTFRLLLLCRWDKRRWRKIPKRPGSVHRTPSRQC

HepG2 = test: cells; format: ADME, cell-based; details: Homo sapiens, HepG2, 24 h
Description: Cytotoxicity against human HepG2 cells assessed as reduction in cell viability after 24 hrs by MTT assay

Acetylcholinesterase [2] = molecular target: T2, Acetylcholinesterase (Homo sapiens, UniProt P22303)
Description: Inhibition of human erythrocyte AChE using acetylthiocholine iodide as substrate preincubated for 5 mins followed by substrate addition measured at 2 mins time interval by Ellman's method

Cholinesterase = Cholinesterase (Homo sapiens, UniProt P06276)
Description: Inhibition of human plasmatic BuChE using butyrylthiocholine iodide as substrate preincubated for 5 mins followed by substrate addition measured at 2 mins time interval by Ellman's method

[3] = Solubility of the compound in PBS buffer; format: physicochemical
in vitro [4] = details: PAMPA
in vitro [5] = details: PAMPA; remark: listed apart in the source
[6] = molecular target: T3, Muscarinic acetylcholine receptor M1 (Homo sapiens) (UniProt P11229); test: Positive allosteric modulation of human M1 mAChR expressed in CHO cells assessed as increase in oxotremorine M-stimulated calcium influx preincubated for 10 mins followed by oxotremorine M addition by Fluo-4 NW dye based fluorescence assay; format: functional, cell-based
T3 sequence (whole entry): T1 sequence (P11229 whole entry)

Acetylcholinesterase [7] = molecular target: T2, Acetylcholinesterase; test: Mixed type inhibition of human erythrocyte AChE assessed as enzyme-inhibitor complex using varying levels of acetylthiocholine iodide as substrate preincubated for 5 mins followed by substrate addition by Lineweaver-Burk plot analysis
Acetylcholinesterase [8] = molecular target: T2, Acetylcholinesterase; test: Mixed type inhibition of human erythrocyte AChE assessed as enzyme-substrate-inhibitor complex using varying levels of acetylthiocholine iodide as substrate preincubated for 5 mins followed by substrate addition by Lineweaver-Burk plot analysis

T2 sequence (P22303 whole entry): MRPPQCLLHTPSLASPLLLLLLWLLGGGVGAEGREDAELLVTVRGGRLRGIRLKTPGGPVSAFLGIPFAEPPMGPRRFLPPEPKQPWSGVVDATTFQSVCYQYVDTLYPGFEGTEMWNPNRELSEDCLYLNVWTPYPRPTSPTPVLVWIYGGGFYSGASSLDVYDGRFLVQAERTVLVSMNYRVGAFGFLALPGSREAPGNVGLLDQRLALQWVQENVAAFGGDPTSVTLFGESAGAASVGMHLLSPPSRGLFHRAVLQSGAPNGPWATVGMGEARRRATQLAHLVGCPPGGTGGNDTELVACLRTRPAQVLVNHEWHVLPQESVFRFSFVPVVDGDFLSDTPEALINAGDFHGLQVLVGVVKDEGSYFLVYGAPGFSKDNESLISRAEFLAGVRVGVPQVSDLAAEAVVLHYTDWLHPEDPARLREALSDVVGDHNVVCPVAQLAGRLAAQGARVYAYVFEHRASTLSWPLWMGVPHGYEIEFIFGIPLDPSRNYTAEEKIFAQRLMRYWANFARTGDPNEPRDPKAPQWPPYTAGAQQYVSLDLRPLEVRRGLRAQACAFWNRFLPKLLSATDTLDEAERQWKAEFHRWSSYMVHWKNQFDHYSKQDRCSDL
Sequence of Cholinesterase (P06276 whole entry): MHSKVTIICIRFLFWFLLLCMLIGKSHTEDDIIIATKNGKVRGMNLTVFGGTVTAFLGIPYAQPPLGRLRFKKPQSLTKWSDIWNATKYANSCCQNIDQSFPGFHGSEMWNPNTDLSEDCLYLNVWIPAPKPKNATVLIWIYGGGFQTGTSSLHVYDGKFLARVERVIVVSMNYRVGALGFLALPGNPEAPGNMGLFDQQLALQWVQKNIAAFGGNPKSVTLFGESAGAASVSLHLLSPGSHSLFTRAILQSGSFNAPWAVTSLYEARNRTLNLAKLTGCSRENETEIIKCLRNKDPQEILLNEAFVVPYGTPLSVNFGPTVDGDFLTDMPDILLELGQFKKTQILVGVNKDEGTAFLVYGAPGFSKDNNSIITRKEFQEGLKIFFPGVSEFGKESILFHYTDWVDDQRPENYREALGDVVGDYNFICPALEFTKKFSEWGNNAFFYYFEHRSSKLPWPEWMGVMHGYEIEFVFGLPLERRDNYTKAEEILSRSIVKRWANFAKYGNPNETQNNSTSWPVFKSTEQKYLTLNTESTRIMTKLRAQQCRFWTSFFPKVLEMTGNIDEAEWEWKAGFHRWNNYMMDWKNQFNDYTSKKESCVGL

Structure (SMILES)	IC50 [1] [µM]	IC50 (HepG2) [µM]	IC50 (Acetylcholinesterase [2]) [µM]	IC50 (Cholinesterase) [µM]	solubility [3]	Papp at 100 µM (in vitro [4]) [×10⁻⁶ cm/s]	Papp at 100 µM (in vitro [5]) [×10⁻⁶ cm/s]	Activity [6]	Ki (Acetylcholinesterase [7]) [µM]	Ki (Acetylcholinesterase [8]) [µM]
Nc1c2c(nc3cc(Cl)ccc13)CCCC2	6.09	43.2	–	–	–	–	–	–	–	–
COc1ccc2nc3c(c(N)c2c1)CCCC3	3.71	44.4	–	–	–	–	–	–	–	–
COc1ccc(Cn2cc(C(=O)NCCCCNc3c4c(nc5ccc(OC)cc35)CCCC4)c(=O)c3ccccc32)cc1	1.07	–	9.5	1.08	–	–	–	–	–	–
COc1ccc(Cn2cc(C(=O)NCCCNc3c4c(nc5ccc(OC)cc35)CCCC4)c(=O)c3ccccc32)cc1	2.48	2.42	2.24	1.03	Insoluble	4.85	–	–	–	–
COc1ccc(Cn2cc(C(=O)NCCCCCNc3c4c(nc5ccc(OC)cc35)CCCC4)c(=O)c3ccccc32)cc1	1.37	–	8.02	6.16	–	–	–	–	–	–
CC(=O)[C@H]1CC[C@H]2[C@@H]3CCC4=CC(=O)CC[C@]4(C)[C@H]3CC[C@]12C [PROGESTERONE]	–	–	–	–	–	8.6	10.8	–	–	–
CN(C)CCCN1c2ccccc2Sc2ccccc21 [PROMAZINE]	–	–	–	–	–	6.6	9.4	–	–	–
COc1ccc(Cn2cc(C(=O)NCCCNc3c4c(nc5ccccc35)CCCC4)c(=O)c3ccccc32)cc1	0.455	2.17	0.129	0.674	Insoluble	2.6	–	–	–	–
COc1ccc(Cn2cc(C(=O)O)c(=O)c3ccccc32)cc1	–	–	> 1000	> 1000	–	–	–	Active	–	–
COc1ccc(Cn2cc(C(=O)NCCCNc3c4c(nc5cc(Cl)ccc35)CCCC4)c(=O)c3ccccc32)cc1	4.01	4.99	0.0419	3.72	Insoluble	3.08	–	–	0.00328	0.00157
COc1ccc(Cn2cc(C(=O)NCCCCCCNc3c4c(nc5ccccc35)CCCC4)c(=O)c3ccccc32)cc1	1.49	2.72	0.194	0.28	Insoluble	2.28	–	–	–	–
C[C@]12CC[C@H]3[C@@H](CCC4=CC(=O)CC[C@@]43C)[C@@H]1CC[C@@H]2O [TESTOSTERONE]	–	–	–	–	–	8.5	11.6	–	–	–
COc1ccc(Cn2cc(C(=O)NCCNc3c4c(nc5ccccc35)CCCC4)c(=O)c3ccccc32)cc1	0.658	1.44	0.187	0.0589	Insoluble	1.8	–	–	–	–
COc1ccc(Cn2cc(C(=O)NCCCCCCCNc3c4c(nc5ccc(OC)cc35)CCCC4)c(=O)c3ccccc32)cc1	11.4	0.6	1.53	49.3	Insoluble	9.25	–	–	–	–
COc1ccc(Cn2cc(C(=O)NCCCCCNc3c4c(nc5cc(Cl)ccc35)CCCC4)c(=O)c3ccccc32)cc1	3.27	–	0.18	7.74	–	–	–	–	–	–
COc1ccc(Cn2cc(C(=O)NCCCCCCCNc3c4c(nc5ccccc35)CCCC4)c(=O)c3ccccc32)cc1	2.14	–	0.194	1.19	–	–	–	–	–	–
COc1ccc(Cn2cc(C(=O)NCCCCCNc3c4c(nc5ccccc35)CCCC4)c(=O)c3ccccc32)cc1	1.48	–	0.293	0.823	–	–	–	–	–	–
COc1ccc(Cn2cc(C(=O)NCCCCNc3c4c(nc5ccccc35)CCCC4)c(=O)c3ccccc32)cc1	1.59	–	0.491	1.32	–	–	–	–	–	–
COc1ccc(Cn2cc(C(=O)NCCNc3c4c(nc5ccc(OC)cc35)CCCC4)c(=O)c3ccccc32)cc1	3.71	1.63	2.64	0.408	Insoluble	1.65	–	–	–	–
COc1ccc(Cn2cc(C(=O)NCCCCCCCNc3c4c(nc5cc(Cl)ccc35)CCCC4)c(=O)c3ccccc32)cc1	5.35	> 40	0.0517	3.34	Insoluble	2.35	–	–	–	–
COc1ccc(Cn2cc(C(=O)NCCNc3c4c(nc5cc(Cl)ccc35)CCCC4)c(=O)c3ccccc32)cc1	4.23	3.48	0.0745	0.0833	Insoluble	2.37	–	–	–	–
COc1ccc(Cn2cc(C(=O)NCCCCCCCCNc3c4c(nc5ccccc35)CCCC4)c(=O)c3ccccc32)cc1	2.05	–	0.768	1.28	–	–	–	–	–	–
COc1ccc(Cn2cc(C(=O)NCCCCCCNc3c4c(nc5cc(Cl)ccc35)CCCC4)c(=O)c3ccccc32)cc1	2.78	–	0.0941	13.4	–	–	–	–	–	–
COc1ccc(Cn2cc(C(=O)NCCCCCCCCNc3c4c(nc5cc(Cl)ccc35)CCCC4)c(=O)c3ccccc32)cc1	9.45	–	0.119	37.2	–	–	–	–	–	–
COc1ccc(Cn2cc(C(=O)NCCCCNc3c4c(nc5cc(Cl)ccc35)CCCC4)c(=O)c3ccccc32)cc1	4.11	–	0.0896	3.12	–	–	–	–	–	–
COc1ccc(Cn2cc(C(=O)NCCCCCCNc3c4c(nc5ccc(OC)cc35)CCCC4)c(=O)c3ccccc32)cc1	8.61	–	10	16.6	–	–	–	–	–	–
COc1ccc(Cn2cc(C(=O)NCCCCCCCCNc3c4c(nc5ccc(OC)cc35)CCCC4)c(=O)c3ccccc32)cc1	7.86	–	74.3	12.4	–	–	–	–	–	–
